In the supplement of paper PMC11451515:

Columns and labels:
Conditions in all cases: 48 h
NOMO1 [1] = assay: AUC of viability dose-response curve (% viability x log10 dose units); higher = less sensitive
How it was run: (§1)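 Library compounds in DMSO were applied for 48 h at 37°C at 11 threefold doses (47 μM to 0.79 nM) to medium-adapted leukemia cells in 1536-well plates holding 500 or 1000 cells/well. Luminescence from CellTiter-Glo One was normalised plate by plate against DMSO and cell-free wells. Area under the curve came from trapezoidal integration of a log-logistic fit, after scaling curves that rose above full viability and discarding those that failed quality control. The fit had four parameters and used log10 doses.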

P12-Ichikawa [2] = assay: as above
How it was run: as §1

SEM cells [3] = assay: as above
How it was run: as §1

NOMO1 [4] = assay: cell viability relative to DMSO control; higher = less cytotoxic
How it was run: (§2)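 NOMO1, SEM and P12-Ichikawa leukemia cells spent at least four passages adapting to each medium before use. They were seeded at 500 cells/well (NOMO1, SEM) or 1000 cells/well (P12-Ichikawa) in 5 μl in 1536-well plates and pin-dosed with library compounds in DMSO at 11 threefold steps from 47 μM down to 0.79 nM. After 48 h at 37°C, CellTiter-Glo One luminescence was read. Viability is reported as a percentage of the DMSO wells on each plate, with cell-free wells as background.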

P12-Ichikawa [5] = assay: as above
How it was run: as §2

SEM cells [6] = assay: as above
How it was run: as §2

CC(C)N(C[C@H]1O[C@@H](n2cnc3c(N)ncnc32)[C@H](O)[C@@H]1O)[C@H]1C[C@@H](CCc2nc3cc(C(C)(C)C)ccc3[nH]2)C1
AUC of viability dose-response curve
Conditions | NOMO1 [1] | P12-Ichikawa [2] | SEM cells [3]
HPLM + 10% dialyzed FBS | 386 | 320 | 411
RPMI 5 mM glucose + 10% FBS | 450 | 450 | 333
RPMI 5 mM glucose + 10% dialyzed FBS | 429 | 383 | 399

cell viability [%]
Conditions | NOMO1 [4] | P12-Ichikawa [5] | SEM cells [6]
HPLM + 10% dialyzed FBS, 0.000781 µM | 96.9 | 87.7 | 85.1
HPLM + 10% dialyzed FBS, 0.00234 µM | 98.5 | 93.6 | 87.1
HPLM + 10% dialyzed FBS, 0.00702 µM | 111 | 101 | 101
HPLM + 10% dialyzed FBS, 0.0211 µM | 109 | 98.2 | 90.5
HPLM + 10% dialyzed FBS, 0.0632 µM | 110 | 99.2 | 82
HPLM + 10% dialyzed FBS, 0.19 µM | 109 | 103 | 95.7
HPLM + 10% dialyzed FBS, 0.569 µM | 113 | 103 | 96.6
HPLM + 10% dialyzed FBS, 1.71 µM | 79.3 | 12.9 | 100
HPLM + 10% dialyzed FBS, 5.12 µM | 36.1 | 11.5 | 82
HPLM + 10% dialyzed FBS, 15.4 µM | 65.5 | 11.6 | 85.4
HPLM + 10% dialyzed FBS, 46.1 µM | 7.55 | 2.23 | 4.22
RPMI 5 mM glucose + 10% FBS, 0.000781 µM | 84 | 90 | 104
RPMI 5 mM glucose + 10% FBS, 0.00234 µM | 92.4 | 96.5 | 124
RPMI 5 mM glucose + 10% FBS, 0.00702 µM | 113 | 103 | 131
RPMI 5 mM glucose + 10% FBS, 0.0211 µM | 91.5 | 99.2 | 112
RPMI 5 mM glucose + 10% FBS, 0.0632 µM | 91.8 | 95.4 | 115
RPMI 5 mM glucose + 10% FBS, 0.19 µM | 115 | 105 | 128
RPMI 5 mM glucose + 10% FBS, 0.569 µM | 94.9 | 102 | 102
RPMI 5 mM glucose + 10% FBS, 1.71 µM | 113 | 103 | 36.3
RPMI 5 mM glucose + 10% FBS, 5.12 µM | 99.1 | 108 | 19
RPMI 5 mM glucose + 10% FBS, 15.4 µM | 93.3 | 92.7 | 21
RPMI 5 mM glucose + 10% FBS, 46.1 µM | 9 | 1.91 | 5.01
RPMI 5 mM glucose + 10% dialyzed FBS, 0.000781 µM | 74.4 | 96.2 | 86.3
RPMI 5 mM glucose + 10% dialyzed FBS, 0.00234 µM | 95.6 | 100 | 100
RPMI 5 mM glucose + 10% dialyzed FBS, 0.00702 µM | 97.2 | 103 | 105
RPMI 5 mM glucose + 10% dialyzed FBS, 0.0211 µM | 91.8 | 104 | 88.2
RPMI 5 mM glucose + 10% dialyzed FBS, 0.0632 µM | 95.3 | 96.5 | 92.8
RPMI 5 mM glucose + 10% dialyzed FBS, 0.19 µM | 103 | 97.6 | 103
RPMI 5 mM glucose + 10% dialyzed FBS, 0.569 µM | 102 | 113 | 113
RPMI 5 mM glucose + 10% dialyzed FBS, 1.71 µM | 99.9 | 99.2 | 100
RPMI 5 mM glucose + 10% dialyzed FBS, 5.12 µM | 86.6 | 31.4 | 47.6
RPMI 5 mM glucose + 10% dialyzed FBS, 15.4 µM | 96.1 | 31 | 49
RPMI 5 mM glucose + 10% dialyzed FBS, 46.1 µM | 6.04 | 1.74 | 4.49

C[C@@H]1CCN(C(=O)CC#N)C[C@@H]1N(C)c1ncnc2[nH]ccc12
AUC of viability dose-response curve
Conditions | NOMO1 [1] | P12-Ichikawa [2] | SEM cells [3]
HPLM + 10% dialyzed FBS | 407 | 411 | 381
RPMI 5 mM glucose + 10% FBS | 376 | 413 | 453
RPMI 5 mM glucose + 10% dialyzed FBS | 414 | 377 | 430

cell viability [%]
Conditions | NOMO1 [4] | P12-Ichikawa [5] | SEM cells [6]
HPLM + 10% dialyzed FBS, 0.000781 µM | 93.6 | 97.1 | 85
HPLM + 10% dialyzed FBS, 0.00234 µM | 81.7 | 87.1 | 92.5
HPLM + 10% dialyzed FBS, 0.00702 µM | 91.7 | 82.4 | 81.5
HPLM + 10% dialyzed FBS, 0.0211 µM | 84.4 | 91.3 | 85.7
HPLM + 10% dialyzed FBS, 0.0632 µM | 97.6 | 86.7 | 91
HPLM + 10% dialyzed FBS, 0.19 µM | 77.1 | 88.5 | 77.4
HPLM + 10% dialyzed FBS, 0.569 µM | 94.7 | 86.2 | 67.4
HPLM + 10% dialyzed FBS, 1.71 µM | 76.3 | 87.7 | 80
HPLM + 10% dialyzed FBS, 5.12 µM | 83.6 | 77.5 | 67
HPLM + 10% dialyzed FBS, 15.4 µM | 81.9 | 84 | 73.1
HPLM + 10% dialyzed FBS, 46.1 µM | 73.6 | 78.6 | 78.6
RPMI 5 mM glucose + 10% FBS, 0.000781 µM | 97.2 | 81.9 | 96.6
RPMI 5 mM glucose + 10% FBS, 0.00234 µM | 84.6 | 85.6 | 99.5
RPMI 5 mM glucose + 10% FBS, 0.00702 µM | 83.3 | 83.6 | 79.5
RPMI 5 mM glucose + 10% FBS, 0.0211 µM | 75.8 | 86.3 | 97.4
RPMI 5 mM glucose + 10% FBS, 0.0632 µM | 77.8 | 95.5 | 103
RPMI 5 mM glucose + 10% FBS, 0.19 µM | 72 | 85.2 | 104
RPMI 5 mM glucose + 10% FBS, 0.569 µM | 73.4 | 92.4 | 99.3
RPMI 5 mM glucose + 10% FBS, 1.71 µM | 71.8 | 88.2 | 98.5
RPMI 5 mM glucose + 10% FBS, 5.12 µM | 81.6 | 87.6 | 80
RPMI 5 mM glucose + 10% FBS, 15.4 µM | 80.9 | 82.1 | 90.7
RPMI 5 mM glucose + 10% FBS, 46.1 µM | 75.7 | 81.9 | 95.3
RPMI 5 mM glucose + 10% dialyzed FBS, 0.000781 µM | 89 | 81.9 | 112
RPMI 5 mM glucose + 10% dialyzed FBS, 0.00234 µM | 89.1 | 80.6 | 104
RPMI 5 mM glucose + 10% dialyzed FBS, 0.00702 µM | 84.9 | 84.7 | 77.5
RPMI 5 mM glucose + 10% dialyzed FBS, 0.0211 µM | 88.4 | 81.8 | 109
RPMI 5 mM glucose + 10% dialyzed FBS, 0.0632 µM | 87.5 | 79.4 | 105
RPMI 5 mM glucose + 10% dialyzed FBS, 0.19 µM | 80.7 | 79.4 | 92.4
RPMI 5 mM glucose + 10% dialyzed FBS, 0.569 µM | 69.3 | 78.7 | 82.1
RPMI 5 mM glucose + 10% dialyzed FBS, 1.71 µM | 101 | 76.4 | 94
RPMI 5 mM glucose + 10% dialyzed FBS, 5.12 µM | 91.9 | 78.2 | 57.9
RPMI 5 mM glucose + 10% dialyzed FBS, 15.4 µM | 88.4 | 72.1 | 83.5
RPMI 5 mM glucose + 10% dialyzed FBS, 46.1 µM | 84.7 | 73.8 | 88.4

CC(C)=CCC/C(C)=C/CC/C(C)=C/CC/C(C)=C/CC/C(C)=C/CC/C(C)=C/CC/C(C)=C/CC/C(C)=C/CC/C(C)=C/CO
AUC of viability dose-response curve
Conditions | NOMO1 [1] | P12-Ichikawa [2] | SEM cells [3]
HPLM + 10% dialyzed FBS | 450 | 467 | 475
RPMI 5 mM glucose + 10% FBS | 462 | 457 | 436
RPMI 5 mM glucose + 10% dialyzed FBS | 455 | 465 | 431

cell viability [%]
Conditions | NOMO1 [4] | P12-Ichikawa [5] | SEM cells [6]
HPLM + 10% dialyzed FBS, 0.000781 µM | 117 | 107 | 94.8
HPLM + 10% dialyzed FBS, 0.00234 µM | 123 | 109 | 109
HPLM + 10% dialyzed FBS, 0.00702 µM | 105 | 108 | 103
HPLM + 10% dialyzed FBS, 0.0211 µM | 92.7 | 112 | 99.7
HPLM + 10% dialyzed FBS, 0.0632 µM | 107 | 116 | 91.2
HPLM + 10% dialyzed FBS, 0.19 µM | 114 | 109 | 98.9
HPLM + 10% dialyzed FBS, 0.569 µM | 112 | 109 | 115
HPLM + 10% dialyzed FBS, 1.71 µM | 117 | 108 | 77.8
HPLM + 10% dialyzed FBS, 5.12 µM | 100 | 104 | 100
HPLM + 10% dialyzed FBS, 15.4 µM | 96.6 | 93.4 | 85.5
HPLM + 10% dialyzed FBS, 46.1 µM | 102 | 106 | 119
RPMI 5 mM glucose + 10% FBS, 0.000781 µM | 95.7 | 105 | 109
RPMI 5 mM glucose + 10% FBS, 0.00234 µM | 96.3 | 103 | 105
RPMI 5 mM glucose + 10% FBS, 0.00702 µM | 108 | 115 | 121
RPMI 5 mM glucose + 10% FBS, 0.0211 µM | 100 | 103 | 96.9
RPMI 5 mM glucose + 10% FBS, 0.0632 µM | 101 | 108 | 104
RPMI 5 mM glucose + 10% FBS, 0.19 µM | 105 | 98.7 | 111
RPMI 5 mM glucose + 10% FBS, 0.569 µM | 115 | 105 | 114
RPMI 5 mM glucose + 10% FBS, 1.71 µM | 104 | 97.1 | 60.7
RPMI 5 mM glucose + 10% FBS, 5.12 µM | 92.6 | 91.3 | 107
RPMI 5 mM glucose + 10% FBS, 15.4 µM | 92.8 | 87.1 | 60.5
RPMI 5 mM glucose + 10% FBS, 46.1 µM | 88.3 | 96.1 | 102
RPMI 5 mM glucose + 10% dialyzed FBS, 0.000781 µM | 92.2 | 98.3 | 99.4
RPMI 5 mM glucose + 10% dialyzed FBS, 0.00234 µM | 91 | 100 | 99.6
RPMI 5 mM glucose + 10% dialyzed FBS, 0.00702 µM | 111 | 92.7 | 95.6
RPMI 5 mM glucose + 10% dialyzed FBS, 0.0211 µM | 93.6 | 99.6 | 102
RPMI 5 mM glucose + 10% dialyzed FBS, 0.0632 µM | 103 | 103 | 105
RPMI 5 mM glucose + 10% dialyzed FBS, 0.19 µM | 113 | 102 | 100
RPMI 5 mM glucose + 10% dialyzed FBS, 0.569 µM | 94.4 | 106 | 108
RPMI 5 mM glucose + 10% dialyzed FBS, 1.71 µM | 95.6 | 97.3 | 61.6
RPMI 5 mM glucose + 10% dialyzed FBS, 5.12 µM | 91.6 | 87.9 | 78.4
RPMI 5 mM glucose + 10% dialyzed FBS, 15.4 µM | 87.7 | 95.9 | 63.4
RPMI 5 mM glucose + 10% dialyzed FBS, 46.1 µM | 86.9 | 90.3 | 89.3
